Experimental data: US8404643B2, “Metastin derivatives and use thereof” (priority 2005, dated 2013)
Square brackets hold non-standard residues; d marks the D form. Peptide text beside a SMILES is read from it. * marks the point of attachment. Phe(4-Cl) = N[C@@H](Cc1ccc(Cl)cc1)C(=O)O; Phe(3-F) = N[C@@H](Cc1cccc(F)c1)C(=O)O; Phe(4-Me) = Cc1ccc(C[C@H](N)C(=O)O)cc1; Arg(Me) = CNC(=N)NCCC[C@H](N)C(=O)O; Dap(CONH2) = NC(=O)NC[C@H](N)C(=O)O; Hyp = O=C(O)[C@@H]1C[C@@H](O)CN1; d4Pal = N[C@H](Cc1ccncc1)C(=O)O; NMeS = CN[C@@H](CO)C(=O)O; Dap = NC[C@H](N)C(=O)O; Aib = CC(C)(N)C(=O)O; NHBn = c1ccc(CN*)cc1; Glycolyl = O=C(CO)*; azaGly = NNC(=O)O

Target: T1, hOT7T175 (Homo sapiens, UniProt Q969F8)
T1 construct: expressed in transfected cells
Assay: Assay for intracellular Ca ion level-increasing activity using FLIPR
Type: cell-based
Conditions: hOT7T175/CHO cells, relative to Metastin (1-54)
Method in brief: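 CHO/dhfr− cells stably transfected with hOT7T175, selected for high metastin response, loaded with Fluo3-AM for 1 h at 37 °C in HANKS/HBSS (pH 7.4) with probenecid. Peptides were diluted from 1×10^−3 M DMSO stock into HANKS/HBSS with 2.5 mM probenecid, 0.2% BSA, 0.1% CHAPS; intracellular Ca rise read by FLIPR.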

T1 sequence (Q969F8 whole entry L364H): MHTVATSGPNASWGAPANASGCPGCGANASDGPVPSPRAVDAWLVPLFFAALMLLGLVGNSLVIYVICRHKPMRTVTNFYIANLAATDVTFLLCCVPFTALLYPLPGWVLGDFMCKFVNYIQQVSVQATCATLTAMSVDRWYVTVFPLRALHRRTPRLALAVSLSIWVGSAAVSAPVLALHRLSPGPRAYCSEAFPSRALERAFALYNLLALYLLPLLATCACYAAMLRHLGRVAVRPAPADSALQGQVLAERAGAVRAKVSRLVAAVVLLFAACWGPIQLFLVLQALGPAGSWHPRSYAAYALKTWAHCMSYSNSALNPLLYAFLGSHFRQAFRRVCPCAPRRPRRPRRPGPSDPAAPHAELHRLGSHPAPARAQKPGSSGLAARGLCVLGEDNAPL

SMILES | Specific Activity: intracellular Ca ion level-increasing activity [specific activity to Metastin (1-54)]
CNC(=N)NCCC[C@H](NC(=O)[C@H](CC(C)C)NC(=O)NNC(=O)[C@H](Cc1cccc(F)c1)NC(=O)[C@@H](NC(=O)[C@H](CC(N)=O)NC(=O)[C@@H](Cc1c[nH]c2ccccc12)NC(=O)[C@@H](Cc1ccc(O)cc1)NC(C)=O)[C@@H](C)O)C(=O)N[C@@H](Cc1c[nH]c2ccccc12)C(N)=O [Compound No. 750, Ac-D-Tyr-D-Trp-Asn-Thr-Phe(3F)-AzaGly-Leu-Arg(Me)-Trp-NH2] (Ac-[dY][dW]NT[Phe(3-F)][azaGly]L[Arg(Me)]W-NH2) | 1.0
CNC(=N)NCCC[C@H](NC(=O)[C@H](CC(C)C)NC(=O)NNC(=O)[C@H](Cc1cccc(F)c1)NC(=O)[C@@H](NC(=O)[C@H](CC(N)=O)NC(=O)C(C)(C)NC(=O)[C@@H](Cc1ccc(O)cc1)NC(C)=O)[C@@H](C)O)C(=O)N[C@@H](Cc1c[nH]c2ccccc12)C(N)=O [Compound No. 786, Ac-D-Tyr-Aib-Asn-Thr-Phe(3F)-AzaGly-Leu-Arg(Me)-Trp-NH2] (Ac-[dY][Aib]NT[Phe(3-F)][azaGly]L[Arg(Me)]W-NH2) | 3.3
CNC(=N)NCCC[C@H](NC(=O)[C@H](CC(C)C)NC(=O)NNC(=O)[C@H](Cc1ccc(Cl)cc1)NC(=O)[C@@H](NC(=O)[C@H](CC(N)=O)NC(=O)[C@H](CCCCN)NC(=O)[C@@H](Cc1ccc(O)cc1)NC(C)=O)[C@@H](C)O)C(=O)N[C@@H](Cc1c[nH]c2ccccc12)C(N)=O [Compound No. 758, Ac-D-Tyr-Lys-Asn-Thr-Phe(4Cl)-AzaGly-Leu-Arg(Me)-Trp-NH2] (Ac-[dY]KNT[Phe(4-Cl)][azaGly]L[Arg(Me)]W-NH2) | 1.8
CNC(=N)NCCC[C@H](NC(=O)[C@H](CC(C)C)NC(=O)NNC(=O)[C@H](Cc1ccccc1)NC(=O)[C@@H](NC(=O)[C@H](CNC(N)=O)NC(=O)[C@@H](Cc1ccncc1)NC(=O)[C@@H](Cc1ccc(O)cc1)NC(C)=O)[C@@H](C)O)C(=O)N[C@@H](Cc1c[nH]c2ccccc12)C(N)=O [Compound No. 718, Ac-D-Tyr-D-Pya(4)-Alb-Thr-Phe-AzaGly-Leu-Arg(Me)-Trp-NH2] (Ac-[dY][d4Pal][Dap(CONH2)]TF[azaGly]L[Arg(Me)]W-NH2) | 2.6
CNC(=N)NCCC[C@H](NC(=O)[C@H](CC(C)C)NC(=O)NNC(=O)[C@H](Cc1ccccc1)NC(=O)[C@@H](NC(=O)[C@H](CCCNC(=N)N)NC(=O)[C@@H]1C[C@@H](O)CN1C(=O)[C@@H](Cc1ccc(O)cc1)NC(C)=O)[C@@H](C)O)C(=O)N[C@@H](Cc1c[nH]c2ccccc12)C(N)=O [Compound No. 861, Ac-D-Tyr-Hyp-Arg-Thr-Phe-AzaGly-Leu-Arg(Me)-Trp-NH2] (Ac-[dY][Hyp]RTF[azaGly]L[Arg(Me)]W-NH2) | 1.4
CNC(=N)NCCC[C@H](NC(=O)[C@H](CC(C)C)NC(=O)NNC(=O)[C@H](Cc1ccc(Cl)cc1)NC(=O)[C@@H](NC(=O)[C@H](CC(N)=O)NC(=O)[C@H](CCC(=O)O)NC(=O)[C@@H](Cc1ccc(O)cc1)NC(C)=O)[C@@H](C)O)C(=O)N[C@@H](Cc1c[nH]c2ccccc12)C(N)=O [Compound No. 759, Ac-D-Tyr-Glu-Asn-Thr-Phe(4Cl)-AzaGly-Leu-Arg(Me)-Trp-NH2] (Ac-[dY]ENT[Phe(4-Cl)][azaGly]L[Arg(Me)]W-NH2) | 1.9
CNC(=N)NCCC[C@H](NC(=O)[C@H](CC(C)C)NC(=O)NNC(=O)[C@H](Cc1ccccc1)NC(=O)[C@@H](NC(=O)[C@H](Cc1cnc[nH]1)NC(=O)[C@@H]1C[C@@H](O)CN1C(=O)[C@@H](Cc1ccc(O)cc1)NC(C)=O)[C@@H](C)O)C(=O)N[C@@H](Cc1c[nH]c2ccccc12)C(N)=O [Compound No. 816, Ac-D-Tyr-Hyp-His-Thr-Phe-AzaGly-Leu-Arg(Me)-Trp-NH2] (Ac-[dY][Hyp]HTF[azaGly]L[Arg(Me)]W-NH2) | 1.1
CNC(=N)NCCC[C@H](NC(=O)[C@H](CC(C)C)NC(=O)NNC(=O)[C@H](Cc1cccc(F)c1)NC(=O)[C@@H](NC(=O)[C@H](CC(N)=O)NC(=O)CNC(=O)[C@@H](Cc1ccc(O)cc1)NC(C)=O)[C@@H](C)O)C(=O)N[C@@H](Cc1c[nH]c2ccccc12)C(N)=O [Compound No. 785, Ac-D-Tyr-Gly-Asn-Thr-Phe(3F)-AzaGly-Leu-Arg(Me)-Trp-NH2] (Ac-[dY]GNT[Phe(3-F)][azaGly]L[Arg(Me)]W-NH2) | 3.2
CNC(=N)NCCC[C@H](NC(=O)[C@H](CC(C)C)NC(=O)NNC(=O)[C@H](Cc1ccccc1)NC(=O)[C@@H](NC(=O)[C@H](CC(=O)NCc1ccccc1)NC(=O)[C@@H](Cc1c[nH]c2ccccc12)NC(=O)[C@@H](Cc1ccc(O)cc1)NC(C)=O)[C@@H](C)O)C(=O)N[C@@H](Cc1c[nH]c2ccccc12)C(N)=O [Compound No. 716, Ac-D-Tyr-D-Trp-Asp(NHBzl)-Thr-Phe-AzaGly-Leu-Arg(Me)-Trp-NH2] (Ac-[dY][dW]D(NHBn)TF[azaGly]L[Arg(Me)]W-NH2) | 3.6
CNC(=N)NCCC[C@H](NC(=O)[C@H](CC(C)C)NC(=O)NNC(=O)[C@H](Cc1ccccc1)NC(=O)[C@@H](NC(=O)[C@H](CC(N)=O)NC(=O)[C@@H](Cc1ccc(O)cc1)NC(C)=O)[C@@H](C)O)C(=O)N[C@@H](Cc1c[nH]c2ccccc12)C(N)=O [Compound No. 777, Ac-D-Tyr-Asn-Thr-Phe-AzaGly-Leu-Arg(Me)-Trp-NH2] (Ac-[dY]NTF[azaGly]L[Arg(Me)]W-NH2) | 1.8
CNC(=N)NCCC[C@H](NC(=O)[C@H](CC(C)C)NC(=O)NNC(=O)[C@H](Cc1ccccc1)NC(=O)[C@@H](NC(=O)[C@H](CC(N)=O)NC(=O)[C@@H](Cc1cnc[nH]1)NC(=O)[C@@H](Cc1ccc(O)cc1)NC(C)=O)[C@@H](C)O)C(=O)N[C@@H](Cc1c[nH]c2ccccc12)C(N)=O [Compound No. 739, Ac-D-Tyr-D-His-Asn-Thr-Phe-AzaGly-Leu-Arg(Me)-Trp-NH2] (Ac-[dY][dH]NTF[azaGly]L[Arg(Me)]W-NH2) | 1.6
CNC(=N)NCCC[C@H](NC(=O)[C@H](CC(C)C)NC(=O)NNC(=O)[C@H](Cc1ccccc1)NC(=O)[C@@H](NC(=O)[C@H](CCC(N)=O)NC(=O)[C@@H]1C[C@@H](O)CN1C(=O)[C@@H](Cc1ccc(O)cc1)NC(C)=O)[C@@H](C)O)C(=O)N[C@@H](Cc1c[nH]c2ccccc12)C(N)=O [Compound No. 843, Ac-D-Tyr-Hyp-Gln-Thr-Phe-AzaGly-Leu-Arg(Me)-Trp-NH2] (Ac-[dY][Hyp]QTF[azaGly]L[Arg(Me)]W-NH2) | 0.8
CNC(=N)NCCC[C@H](NC(=O)[C@H](CC(C)C)NC(=O)NNC(=O)[C@H](Cc1ccc(C)cc1)NC(=O)[C@@H](NC(=O)[C@H](CC(N)=O)NC(=O)[C@@H]1C[C@@H](O)CN1C(=O)[C@@H](Cc1ccc(O)cc1)NC(C)=O)[C@@H](C)O)C(=O)N[C@@H](Cc1c[nH]c2ccccc12)C(N)=O [Compound No. 874, Ac-D-Tyr-Hyp-Asn-Thr-Phe(4Me)-AzaGly-Leu-Arg(Me)-Trp-NH2] (Ac-[dY][Hyp]NT[Phe(4-Me)][azaGly]L[Arg(Me)]W-NH2) | 0.8
CNC(=N)NCCC[C@H](NC(=O)[C@H](CC(C)C)NC(=O)NNC(=O)[C@H](Cc1ccccc1)NC(=O)[C@@H](NC(=O)[C@H](CC(N)=O)NC(=O)[C@@H]1C[C@@H](O)CN1C(=O)[C@@H](Cc1ccc(O)cc1)NC(=O)CO)[C@@H](C)O)C(=O)N[C@@H](Cc1c[nH]c2ccccc12)C(N)=O [Compound No. 776, Glycoloyl-D-Tyr-Hyp-Asn-Thr-Phe-AzaGly-Leu-Arg(Me)-Trp-NH2] (Glycolyl-[dY][Hyp]NTF[azaGly]L[Arg(Me)]W-NH2) | 1.5
CNC(=N)NCCC[C@H](NC(=O)[C@H](CC(C)C)NC(=O)NNC(=O)[C@H](Cc1ccccc1)NC(=O)[C@@H](NC(=O)[C@H](CN)NC(=O)[C@@H]1C[C@@H](O)CN1C(=O)[C@@H](Cc1ccc(O)cc1)NC(C)=O)[C@@H](C)O)C(=O)N[C@@H](Cc1c[nH]c2ccccc12)C(N)=O [Compound No. 863, Ac-D-Tyr-Hyp-Dap-Thr-Phe-AzaGly-Leu-Arg(Me)-Trp-NH2] (Ac-[dY][Hyp][Dap]TF[azaGly]L[Arg(Me)]W-NH2) | 0.9
CNC(=N)NCCC[C@H](NC(=O)[C@H](CC(C)C)NC(=O)NNC(=O)[C@H](Cc1ccccc1)NC(=O)[C@@H](NC(=O)[C@H](CC(N)=O)NC(=O)C(CC1CCNCC1)NC(=O)[C@@H](Cc1ccc(O)cc1)NC(C)=O)[C@@H](C)O)C(=O)N[C@@H](Cc1c[nH]c2ccccc12)C(N)=O (mixture of isomers) [Compound No. 774, Ac-D-Tyr-DL-Ala(Pip)-Asn-Thr-Phe-AzaGly-Leu-Arg(Me)-Trp-NH2] | 2.0
CNC(=N)NCCC[C@H](NC(=O)[C@H](CC(C)C)NC(=O)NNC(=O)[C@H](Cc1ccccc1)NC(=O)[C@H](CO)N(C)C(=O)[C@H](CC(N)=O)NC(=O)[C@@H]1C[C@@H](O)CN1C(=O)[C@@H](Cc1ccc(O)cc1)NC(C)=O)C(=O)N[C@@H](Cc1c[nH]c2ccccc12)C(N)=O [Compound No. 809, Ac-D-Tyr-Hyp-Asn-NMeSer-Phe-AzaGly-Leu-Arg(Me)-Trp-NH2] (Ac-[dY][Hyp]N[NMeS]F[azaGly]L[Arg(Me)]W-NH2) | 1.0
